# Experimental data published in patent US10401361B2, “Intracellular organelle peptide targeted enzyme substrates” (Marker Gene Technologies, Inc., priority 2009, dated 2019).
# Tested on: mannosidase
# Test: Staining with targeted mannosidase substrates after incubation with mannosidase inhibitor
# Format: cell-based, human
# Conditions: 100 uM inhibitor, 1 day (Golgi) or 5 days (ER); substrate 20 uM, 4 hours; AG06173, FIG. 2
# Method: Normal, healthy human lung fibroblasts (Cell line AG06173, Coriell Institute for Medical Research, Camden, N.J.) were prepared according to example 17 and plated in an optical bottom 96 well plate at 1×10^4 cells/mL.
# Cells were then incubated at 37° C. and 5% CO2 in complete EMEM and incubated for 1 (Golgi) or 5 days (ER) at 37° C., 5% CO2 with or without the mannosidase inhibitor swainsonine at 100 uM. The appropriate targeted substrate for staining either the ER or Golgi was then applied at a final concentration of 20 uM and incubated for 4 hours at 37° C., 5% CO2.
# Following incubation the cells were washed in PBS and bathed in Opti-Klear™ Imaging Buffer (Marker Gene Technologies, Inc Eugene Oreg.) with or without nuclear stain Hoechst 33342. Cells were then imaged on an EVOS Auto-FL fluorescence microscope (Life Technologies) fitted with a TexasRed™ light cube.
compound,measurement,value
O[C@H]1[C@H]2[C@H](O)CCCN2C[C@H]1O [swainsonine],effect on mannosidase activity seen by targeted substrate staining,reduction in enzyme activity
